Calls of active or inactive are those of the source. The calls are words filed in the database; no cut-off is given here.
Columns and labels:
HepG2 [1] = experiment: Induction of apoptosis in human HepG2 cells assessed as necrotic cells level at 10 uM after 24 hrs by annexin V/propidium iodide double staining based flow cytometry; assay type: functional
HepG2 [2] = experiment: Cell cycle arrest in human HepG2 cells assessed as accumulation at S phase at 2.5 uM after 12 hrs by propidium iodide staining based flow cytometry (reference value: 19.5%); assay type: functional
[3] = Selectivity for fluorescently-labeled c-KIT1 G-quadruplex DNA (unknown origin) over fluorescently-labeled h-TELO G-quadruplex DNA (unknown origin)
[4] = Selectivity for fluorescently-labeled c-KIT1 G-quadruplex DNA (unknown origin) over fluorescently-labeled c-MYC G-quadruplex DNA (unknown origin)
HepG2 [5] = experiment: Cell cycle arrest in human HepG2 cells assessed as accumulation at S phase at 5 uM after 12 hrs by propidium iodide staining based flow cytometry (reference value: 19.5%); assay type: functional
HepG2 [6] = experiment: Cell cycle arrest in human HepG2 cells assessed as accumulation at G0/G1 phase at 10 uM after 12 hrs by propidium iodide staining based flow cytometry (reference value: […]); assay type: functional
HepG2 [7] = experiment: Induction of apoptosis in human HepG2 cells assessed as early apoptotic cells level at 2.5 uM after 24 hrs by annexin V/propidium iodide double staining based flow cytometry; assay type: functional
HepG2 [8] = experiment: Induction of apoptosis in human HepG2 cells assessed as late apoptotic cells level at 2.5 uM after 24 hrs by annexin V/propidium iodide double staining based flow cytometry; assay type: functional
[9] = Binding affinity to fluorescently-labeled duplex DNA (unknown origin) by thiazole-ornage dye based fluorescence intercalator displacement assay
HepG2 [10] = experiment: Cell cycle arrest in human HepG2 cells assessed as accumulation at G2/M phase at 10 uM after 12 hrs by propidium iodide staining based flow cytometry (reference value: […]); assay type: functional
HepG2 [11] = experiment: Induction of apoptosis in human HepG2 cells assessed as early apoptotic cells level at 5 uM after 24 hrs by annexin V/propidium iodide double staining based flow cytometry; assay type: functional
[12] = Binding affinity to fluorescently-labeled c-MYC G-quadruplex DNA (unknown origin) by thiazole-ornage dye based fluorescence intercalator displacement assay
[13] = Binding affinity to fluorescently-labeled c-KIT1 G-quadruplex DNA (unknown origin) assessed as change in melting temperature at 2 uM in presence of 5 uM c-KIT2 G-quadruplex DNA by FRET assay
[14] = Binding affinity to fluorescently-labeled c-KIT1 G-quadruplex DNA (unknown origin) by thiazole-ornage dye based fluorescence intercalator displacement assay
HepG2 [15] = experiment: Cell cycle arrest in human HepG2 cells assessed as accumulation at subG0 phase at 10 uM after 12 hrs by propidium iodide staining based flow cytometry (reference value: 1.8%); assay type: functional
[16] = Selectivity for fluorescently-labeled c-KIT1 G-quadruplex DNA (unknown origin) over fluorescently-labeled c-KIT2 G-quadruplex DNA (unknown origin)
HepG2 [17] = experiment: Induction of apoptosis in human HepG2 cells assessed as late apoptotic cells level at 5 uM after 24 hrs by annexin V/propidium iodide double staining based flow cytometry; assay type: functional
[18] = Binding affinity to fluorescently-labeled c-KIT1 G-quadruplex DNA (unknown origin) assessed as change in melting temperature at 2 uM in presence of 5 uM h-TELO G-quadruplex DNA by FRET assay
HepG2 [19] = experiment: Cell cycle arrest in human HepG2 cells assessed as accumulation at G0/G1 phase at 5 uM after 12 hrs by propidium iodide staining based flow cytometry (reference value: 53.4%); assay type: functional
HepG2 [20] = experiment: Cytotoxicity against human HepG2 cells after 24 hrs by MTT assay; conditions: HepG2, 24 h
HepG2 [21] = experiment: Induction of apoptosis in human HepG2 cells assessed as late apoptotic cells level at 10 uM after 24 hrs by annexin V/propidium iodide double staining based flow cytometry; assay type: functional
HepG2 [22] = experiment: Cell cycle arrest in human HepG2 cells assessed as accumulation at subG0 phase at 5 uM after 12 hrs by propidium iodide staining based flow cytometry (reference value: 1.8%); assay type: functional
HepG2 [23] = experiment: Induction of apoptosis in human HepG2 cells assessed as necrotic cells level at 2.5 uM after 24 hrs by annexin V/propidium iodide double staining based flow cytometry; assay type: functional
HepG2 [24] = experiment: Cell cycle arrest in human HepG2 cells assessed as accumulation at G2/M phase at 2.5 uM after 12 hrs by propidium iodide staining based flow cytometry (reference value: 25.2%); assay type: functional
[25] = Binding affinity to fluorescently-labeled c-KIT1 G-quadruplex DNA (unknown origin) assessed as change in melting temperature at 2 uM in presence of 5 uM c-MYC G-quadruplex DNA by FRET assay
HepG2 [26] = experiment: Induction of apoptosis in human HepG2 cells assessed as early apoptotic cells level at 10 uM after 24 hrs by annexin V/propidium iodide double staining based flow cytometry; assay type: functional
[27] = Binding affinity to fluorescently-labeled c-KIT1 G-quadruplex DNA (unknown origin) assessed as change in melting temperature at 2 uM by FRET assay
HepG2 [28] = experiment: Cell cycle arrest in human HepG2 cells assessed as accumulation at G2/M phase at 5 uM after 12 hrs by propidium iodide staining based flow cytometry (reference value: 25.2%); assay type: functional
[29] = Binding affinity to fluorescently-labeled h-TELO G-quadruplex DNA (unknown origin) by thiazole-ornage dye based fluorescence intercalator displacement assay
HepG2 [30] = experiment: Cell cycle arrest in human HepG2 cells assessed as accumulation at subG0 phase at 2.5 uM after 12 hrs by propidium iodide staining based flow cytometry (reference value: 1.8%); assay type: functional
[31] = Binding affinity to fluorescently-labeled c-KIT2 G-quadruplex DNA (unknown origin) by thiazole-ornage dye based fluorescence intercalator displacement assay
HepG2 [32] = experiment: Cell cycle arrest in human HepG2 cells assessed as accumulation at S phase at 10 uM after 12 hrs by propidium iodide staining based flow cytometry (reference value: 19.10%); assay type: functional
[33] = Binding affinity to fluorescently-labeled c-KIT1 G-quadruplex DNA (unknown origin) assessed as change in melting temperature by FRET assay
HepG2 [34] = experiment: Induction of apoptosis in human HepG2 cells assessed as necrotic cells level at 5 uM after 24 hrs by annexin V/propidium iodide double staining based flow cytometry; assay type: functional
[35] = Binding affinity to fluorescently-labeled c-KIT1 G-quadruplex DNA (unknown origin) assessed as change in melting temperature at 2 uM in presence of 20 uM duplex DNA by FRET assay
HepG2 [36] = experiment: Cell cycle arrest in human HepG2 cells assessed as accumulation at G0/G1 phase at 2.5 uM after 12 hrs by propidium iodide staining based flow cytometry (reference value: 53.4%); assay type: functional

Work on `O=C(NCc1cn(-c2ccc(NC(=O)[C@@H]3CCCN3)cc2)nn1)c1cccc(C(=O)NCc2cn(-c3ccc(NC(=O)[C@@H]4CCCN4)cc3)nn2)n1` yielded an Activity (HepG2 [1]) of 85.8%, an Activity (HepG2 [2]) of 13.8% and a Selectivity ratio [3] of 15. For the same compound, the Selectivity ratio [4] was 5, the Activity (HepG2 [5]) was 14% and the Activity (HepG2 [6]) was 65.8%. The Activity (HepG2 [7]) was 0.6%, the Activity (HepG2 [8]) was 3.9% and the DC50 [9] was > 25 µM. The Activity (HepG2 [10]) was 18.4%, the Activity (HepG2 [11]) was 0.2% and the DC50 [12] was 11.3 µM. For the same compound, the Kd [12] was 3.8 µM, the Activity [13] was “inactive” and the DC50 [14] was 0.47 µM. For the same compound, the Kd [14] was 0.74 µM, the Activity (HepG2 [15]) was 7.4% and the Selectivity ratio [16] was 30. The Activity (HepG2 [17]) was 2.6%, the Activity [18] was “inactive” and the Activity (HepG2 [19]) was 55.5%. For the same compound, the IC50 (HepG2 [20]) was 7.42 µM, the Activity (HepG2 [21]) was 6.7% and the Activity (HepG2 [22]) was 6.1%. For the same compound, the Activity (HepG2 [23]) was 29.3%, the Activity (HepG2 [24]) was 26.7% and the Activity [25] was “inactive”. It also gave an Activity (HepG2 [26]) of 7.3%, a deltaTm [27] of 30.6 K and an Activity (HepG2 [28]) of 24.4%. It also gave a DC50 [29] of 7.3 µM, a Kd [29] of 11.6 µM and an Activity (HepG2 [30]) of 3.3%. The DC50 [31] was 9.5 µM, the Kd [31] was 22.7 µM and the Activity (HepG2 [32]) was 8.2%. For the same compound, the Activity [33] was “Dose-dependent effect”, the Activity (HepG2 [34]) was 38.6% and the Activity [35] was “inactive”. The Activity (HepG2 [36]) was 56.2%.

— ChEMBL document CHEMBL3352632 (Bioorg Med Chem, 2014)
